Laboratory results from patent US8338454B2, “Nitrile derivatives and their pharmaceutical use and compositions” (Cellceutix Corporation, priority 2009, dated 2012).
Read-outs that look alike come from different tables or passages of the source.

Legend:
[1] = tested on: Colo 205; test: Cytotoxicity of Kevetrin, cell viability (MTT); format: cell-based; conditions: Homo sapiens; Colo 205 colon carcinoma; continuous exposure for three doubling times; read-out: IC50 Concentration
Text: (§1) The results are set forth below.

[2] = tested on: DU-145; test: Cytotoxicity of Kevetrin, cell viability (MTT); format: cell-based; conditions: Homo sapiens; DU-145 prostate carcinoma; continuous exposure for three doubling times; read-out: IC50 Concentration
Text: as §1

[3] = tested on: HCT-116; test: Cytotoxicity of Kevetrin, cell viability (MTT); format: cell-based; conditions: Homo sapiens; HCT-116 colon carcinoma; continuous exposure for three doubling times; read-out: IC50 Concentration
Text: as §1

[4] = tested on: HT-29; test: Cytotoxicity of Kevetrin, cell viability (MTT); format: cell-based; conditions: Homo sapiens; HT-29 colon carcinoma; continuous exposure for three doubling times; read-out: IC50 Concentration
Text: as §1

[5] = tested on: LnCap; test: Cytotoxicity of Kevetrin, cell viability (MTT); format: cell-based; conditions: Homo sapiens; LnCap prostate carcinoma; continuous exposure for three doubling times; read-out: IC50 Concentration
Text: as §1

[6] = tested on: MCF-7; test: Cytotoxicity of Kevetrin, cell viability (MTT); format: cell-based; conditions: Homo sapiens, MCF7; MCF-7 breast carcinoma; continuous exposure for three doubling times; read-out: IC50 Concentration
Text: as §1

[7] = tested on: SCC 15; test: Cytotoxicity of Kevetrin, cell viability (MTT); format: cell-based; conditions: Homo sapiens; SCC 15 squamous cell carcinoma; continuous exposure for three doubling times; read-out: IC50 Concentration
Text: as §1

[8] = tested on: SCC-61; test: Cytotoxicity of Kevetrin, cell viability (MTT); format: cell-based; conditions: Homo sapiens; SCC-61 squamous cell carcinoma; continuous exposure for three doubling times; read-out: IC50 Concentration
Text: as §1

[9] = tested on: SKOV-3; test: Cytotoxicity of Kevetrin, cell viability (MTT); format: cell-based; conditions: Homo sapiens, SK-OV-3; SKOV-3 ovarian carcinoma; continuous exposure for three doubling times; read-out: IC50 Concentration
Text: as §1

[10] = tested on: SW-480; test: Cytotoxicity of Kevetrin, cell viability (MTT); format: cell-based; conditions: Homo sapiens, SW480; SW-480 colon carcinoma; continuous exposure for three doubling times; read-out: IC50 Concentration
Text: as §1

[11] = tested on: malignant glioma cells; test: Viability of human tumor cell lines; format: cell-based
Text: as §1

[12] = tested on: all tumor cell lines tested; test: Activity spectra, MTT assay; format: cell-based, human; conditions: read-out: average IC50 for all cell lines tested
Description: The indicated values are calculated as follows: log(IC50 individual cell line−IC50 average). Negative values indicate that the cell line is more sensitive than the average, whereas positive values indicate that the cell line is more resistant than the average.
(§2) The indicated values are calculated as follows: log(IC50 individual cell line−IC50 average). Negative values indicate that the cell line is more sensitive than the average, whereas positive values indicate that the cell line is more resistant than the average. […] The activity of Kevetrin was more marked than that of cisplatin toward lung, head and neck, breast, ovary, and colon cell lines.

[13] = tested on: DU-145, HCT-116, or HT-29 carcinoma cells; test: Time dependence of Kevetrin cytotoxicity, MTT assay; format: cell-based, human; conditions: exposure 5 minutes to 120 hours; DU-145, HCT-116, HT-29
Description: Human carcinoma cells were exposed to different concentrations of Kevetrin for 5, 10, 20, 30, or 45 minutes or 1, 2, 6, 24, or 120 hours. Cellular viability expressed as IC50 was plotted verses time of Kevetrin exposure as measured using the MTT assay.
To determine the influence of exposure time on the cytotoxic effects of Kevetrin, DU-145, HCT-116, or HT-29 carcinoma cells were exposed to different concentrations of Kevetrin for 5, 10, 20, 30, or 45 minutes or 1, 2, 6, 24, or 120 hours. […] The time dependence was particularly dramatic for exposure times […]. In contrast, extending the drug exposure time beyond 24 hours had no influence on the cytotoxicity.

[14] = tested on: head and neck cancer cell lines; test: Activity spectra, MTT assay; format: cell-based, human; conditions: three head and neck cancer cell lines
Description: as §2

[15] = tested on: leukemias; test: Activity spectra, MTT assay; format: cell-based, human
Description: as §2

[16] = Weight loss due to Kevetrin in tumor bearing mice; format: in vivo
Description: Animal weights of mice following treatment with either 100 or 200 mg/kg Kevetrin IV on Day 0 are shown.
(§3) The mice were observed daily for any adverse affects. Mice body weights were taken prior to treatment and every other day during and post treatment. If an animal became unwell, any treatment of that animal was suspended. If there was no recovery, the animal was sacrificed. […] Mice tumor size measurements were taken prior to treatment and every other day during and post treatment. The same scientist was responsible for taking the tumor measurements throughout the study.
(§4) The dosing procedure began the day the mice were randomized and grouped. The dose was administered, as discussed in the following paragraph, on days 7, 9 and 11 following tumor implantation. Each dose was administered via the tail vein.
When Kevetrin was administered intravenously (IV) to animals bearing tumors, the weight loss due to the administration of the compound was within acceptable limits. […] Both these concentrations may be used to establish the efficacy of Kevetrin.

[17] = tested on: MDA-MB-231 human breast carcinoma; test: Xenograft efficacy in nude mice; format: in vivo
Description: MDA-MB-231 human breast carcinoma bearing mice were treated with 200 mg/kg Kevetrin IV days 7, 9, and 11 compared to 22 mg/kg Taxol IV Days 7, 9, 11 and 13.
(§5) The cells were cultured in 10% FBS RPMI medium. The cells were obtained at passage 5 for further expansion for this efficacy study. Nude mice (Nu/Nu), both male (20 to 24 g) and female (19 to 22 g), were purchased at 6 to 8 weeks old from Charles River Laboratories. These mice were naïve at the beginning of the study and were identified by ear punching. The mice were left for five days to become acclimated to their new environment. Mice were implanted with human tumor cells in a 50:50 mix of RPMI:Matrigel subcutaneously in the right flank of each mouse. Dosing began when tumors reached an average volume of 100 mm^3.
as §3
(§6) Nude mice were implanted with 5×10^6 tumor cells in a 50:50 mix of RPMI:Matrigel subcutaneously in the right flank of each mouse. […]

[18] = tested on: HT-29 colon carcinoma; test: Xenograft efficacy in nude mice; format: in vivo
Description: HT-29 tumor bearing nude mice were treated with either 200 mg/kg Kevetrin IV or 5-FU on Days 7, 9, and 11.
as §5, §3, §6

[19] = tested on: PC-3 human prostate cancer; test: Xenograft efficacy in nude mice; format: in vivo
Description: PC-3 tumor bearing nude mice were treated with either 200 mg/kg Kevetrin IV on Days 7, 9, 11 or 10 mg/kg cisplatin on Day 7.
as §5, §3, §6

[20] = tested on: HCT-15 human colon carcinoma with P-glycoprotein mediated resistance; test: Xenograft efficacy in nude mice; format: in vivo
Description: HCT-15 tumor bearing nude mice were treated with either 200 mg/kg Kevetrin IV on Days 7, 9, 11 or 22 mg/kg Taxol on Days 7, 9, 11 and 13 post tumor.

[21] = tested on: A549 multi-drug resistant human lung carcinoma; test: Xenograft efficacy in nude mice; format: in vivo
Description: Nude mice were implanted with 5×10^6 tumor cells in a 50:50 mix of RPMI:Matrigel subcutaneously in the right flank of each mouse. Dosing began when tumors reached an average volume of 100 mm^3, usually reached by day 14 post implant, and was carried out for 8 days. […]

[22] = tested on: NCI-H1975 multi-drug resistant human lung carcinoma; test: Xenograft efficacy in nude mice; format: in vivo
Description: as §5, §3
Nude mice were implanted with 5×10^6 tumor cells in a 50:50 mix of RPMI:Matrigel subcutaneously in the right flank of each mouse. Dosing began when tumors reached an average volume of 100 mm^3, usually reached by day 14 post implant, and was carried out for 8 days. A necropsy was performed 41 days after treatment ended.
as §4
Efficacy of Kevetrin 200 mg/kg Days 7, 9, & 11 Against Taxol at 22 mg/kg on Days 7, 9, 11 & 13 in NCI-H1975 Multi-Drug Resistant Human Lung Carcinoma.
The animals were implanted subcutaneously with another multi-drug resistant human lung carcinoma and the compounds were injected IV as per the schedule. […] The tumor growth was delayed about 9 days for Taxol treated animals and about 24 days more than the untreated controls. The results are depicted in FIG. 9.

[23] = 200 mg/kg Kevetrin IV days 7, 9, 11
[24] = Taxol 22 mg/kg IV days 7, 9, 11, 13

Compound `Cl.N#CCCCSC(=N)N` [Kevetrin, S-(3-cyanopropyl)isothiourea hydrochloride] has an IC50 [1] of 6 µg/mL, an IC50 [2] of 64 µg/mL and an IC50 [3] of 21 µg/mL. For the same compound, the IC50 [4] was 29 µg/mL, the IC50 [5] was 52 µg/mL and the IC50 [6] was 68 µg/mL. It also gave an IC50 [7] of 12 µg/mL, an IC50 [8] of 64 µg/mL and an IC50 [9] of 58 µg/mL. The IC50 [10] was 62 µg/mL, the IC50 [11] was roughly 0.03 µg/mL and the IC50 ([12]; Homo sapiens) was 490 nM. For the same compound, the “time dependence of cytotoxicity” value [13] was “Clear time-dependent cytotoxic effects”, the “activity toward head and neck cancer cell lines” value [14] was “showed activity toward all of the cell lines” and the activity toward leukemias [15] was “comparatively limited activity”. For the same compound, the “weight loss of the body weight” value ([16]; 100 mg/kg intravenously on days 7, 9, and 11, tumor bearing mice) was 6.8%, the “weight loss of the body weight” value ([16]; 200 mg/kg intravenously on days 7, 9, and 11, tumor bearing mice) was 9.3% and the “tumor growth delay more than the untreated control” value [17, 23] was 32 days. For the same compound, the “tumor growth delay more than the Taxol treated animals” value ([17]; 200 mg/kg Kevetrin IV days 7, 9, 11 vs 22 mg/kg Taxol IV days 7, 9, 11, 13) was 12 days, the “tumor growth delay more than the untreated control” value [18, 23] was 33 days and the “tumor growth delay more than the 5-FU treated animals” value ([18]; 200 mg/kg Kevetrin IV days 7, 9, 11 vs 5-FU) was 10 days. The “tumor growth delay more than the untreated control” value [19, 23] was 34 days, the “tumor growth delay more than the Cisplatin treated animals” value ([19]; 200 mg/kg Kevetrin IV days 7, 9, 11 vs 10 mg/kg Cisplatin IP day 7) was 8 days and the “tumor growth delay more than the Taxol treated and the untreated control” value [20, 23] was 15 days. For the same compound, the “tumor growth delay more than the untreated controls” value [21, 23] was “about 26 days” and the “tumor growth delay more than the untreated controls” value [22, 23] was “about 24 days”.

For `CC(=O)O[C@H]1C(=O)[C@@]2(C)[C@H]([C@H](OC(=O)c3ccccc3)[C@]3(O)C[C@H](OC(=O)[C@H](O)[C@@H](NC(=O)c4ccccc4)c4ccccc4)C(C)=C1C3(C)C)[C@]1(OC(C)=O)CO[C@@H]1C[C@@H]2O` [Taxol, reference compound], the “effect on the cancer (in words)” value [20, 24] was “little effect”, the “effect on the cancer (in words)” value [21, 24] was “no effect” and the “effect on the cancer (in words)” value [22, 24] was “limited effect”. The tumor growth delay [22, 24] was “about 9 days”.

In the case of `N.N.[Cl][Pt][Cl]` [cisplatin, reference compound], the IC50 ([12]; MTT assay, continuous exposure for three doubling times) is reported as 2100 nM and the “activity toward head and neck cancer cell lines” value [14] is reported as “active toward one of the three cell lines”.
